Earlier results as cited in patent US11786452B2, “Method for dyeing keratinous material” (Henkel AG & Co. KGaA, priority 2019, dated 2023).

Conditions: 25° C.

Row | SMILES | solubility in water
1 | O=S(=O)([O-])c1ccc(N=Nc2c(O)ccc3ccccc23)cc1.[Na+] [Acid Orange 7, sodium salt of 4-[(2-hydroxy-1-naphthyl)azo]benzene sulphonate] | more than 7 g/L
2 | O=C([O-])c1c(Cl)c(Cl)c(Cl)c(Cl)c1-c1c2c(Br)cc(=O)c(Br)c-2oc2c(Br)c(O)cc(Br)c12.O=C([O-])c1c(Cl)c(Cl)c(Cl)c(Cl)c1-c1c2c(Br)cc(=O)c(Br)c-2oc2c(Br)c(O)cc(Br)c12.[Na+].[Na+] [Acid Red 92, disodium salt of 3,4,5,6-tetrachloro-2-(1,4,5,8-tetrabromo-6-hydroxy-3-oxoxanthen-9-yl)benzoic acid] | greater than 10 g/L
3 | CCN(Cc1cccc(S(=O)(=O)[O-])c1)c1ccc(C(=C2C=CC(=[N+](CC)Cc3cccc(S(=O)(=O)[O-])c3)C=C2)c2ccccc2S(=O)(=O)[O-])cc1.[Na+].[Na+] [Acid Blue 9] | more than 20 % by weight

Now from value to compound:

Row | solubility in water | SMILES
4 | highly soluble | O=C([O-])C1=NN(c2ccc(S(=O)(=O)[O-])cc2)C(=O)C1N=Nc1ccc(S(=O)(=O)[O-])cc1.[Na+].[Na+].[Na+] (centres unmarked) [Acid Yellow 23, trisodium salt of 4,5-dihydro-5-oxo-1-(4-sulfophenyl)-4-((4-sulfophenyl)azo)-1H-pyrazole-3-carboxylic acid]
5 | 2500 µg/mL | Nc1cc(S(=O)(=O)[O-])cc2cc(S(=O)(=O)[O-])c(N=Nc3ccccc3)c(O)c12.[Na+].[Na+] [Acid Red 33, diantrium salt of 5-amino-4-hydroxy-3-(phenylazo)-naphthalene-2,7-disulphonate]
